Reference: ChEMBL document CHEMBL5316344, “Homologation of the Alkyl Side Chain of Antimitotic Phenyl 4-(2-Oxo-3-alkylimidazolidin-1-yl)benzenesulfonate Prodrugs Selectively Targeting CYP1A1-Expressing Breast Cancers Improves Their Stability in Rodent Liver Microsomes” (J Med Chem, 2023)

What was measured:
M21 = test: Antiproliferative activity against human M21 cells assessed as cell growth inhibition incubated for 48 hrs by sulforhodamine B assay; format: functional, cell-based; details: M21, 48 h
MCF7 = test: Antiproliferative activity against human MCF7 cells expressing CYP1A1 assessed as cell growth inhibition incubated for 48 hrs by sulforhodamine B assay; format: functional, cell-based; details: MCF7, 48 h
HT-29 = test: Antiproliferative activity against human HT-29 cells assessed as cell growth inhibition incubated for 48 hrs by sulforhodamine B assay; format: functional, cell-based; details: HT-29, 48 h
[1] = Stability in mouse liver microsomes assessed as half life incubated for 60 mins by HPLC analysis; format: ADME, Microsome
[2] = Stability in human liver microsomes assessed as intrinsic clearance incubated for 60 mins by HPLC analysis; format: ADME, Microsome; details: read-out: CLH
[3] = Stability in rat liver microsomes assessed as intrinsic clearance incubated for 60 mins by HPLC analysis; format: ADME, Microsome; details: read-out: CLH
[4] = Stability in rat liver microsomes assessed as half life incubated for 60 mins by HPLC analysis; format: ADME, Microsome
[5] = Stability in human liver microsomes assessed as half life incubated for 60 mins by HPLC analysis; format: ADME, Microsome
[6] = Stability in mouse liver microsomes assessed as intrinsic clearance incubated for 60 mins by HPLC analysis; format: ADME, Microsome; details: read-out: CLH
Cytochrome P450 1A1 = molecular target: T1, Cytochrome P450 1A1 (Homo sapiens, UniProt P04798); test: Binding affinity to human CYP1A1 assessed as inhibition of conversion of 7-ethoicyresorufin into fluorescent resorufin by measuring inhibition constant preincubated for 5 mins followed by […] addition measured every minute for 15 mins by EROD assay; format: ADME
T1 sequence (P04798 whole entry): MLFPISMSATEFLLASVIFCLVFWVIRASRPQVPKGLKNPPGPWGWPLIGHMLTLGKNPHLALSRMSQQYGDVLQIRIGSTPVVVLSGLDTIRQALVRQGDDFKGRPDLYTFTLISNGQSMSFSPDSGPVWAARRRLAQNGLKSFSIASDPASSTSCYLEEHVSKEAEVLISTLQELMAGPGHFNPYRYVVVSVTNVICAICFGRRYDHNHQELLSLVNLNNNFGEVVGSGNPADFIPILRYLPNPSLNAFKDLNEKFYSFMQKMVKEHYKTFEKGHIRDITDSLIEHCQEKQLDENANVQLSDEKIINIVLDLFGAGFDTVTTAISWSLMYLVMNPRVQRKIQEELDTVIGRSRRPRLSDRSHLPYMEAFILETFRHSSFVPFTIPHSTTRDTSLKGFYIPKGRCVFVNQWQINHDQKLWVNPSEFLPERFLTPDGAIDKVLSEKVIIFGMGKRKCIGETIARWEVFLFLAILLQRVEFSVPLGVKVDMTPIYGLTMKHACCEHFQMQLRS

[7] = Selectivity ratio, ratio of IC50 for antiproliferative activity against human M21 cells to IC50 for antiproliferative activity against human MCF7 cells expressing CYP1A1; format: functional
[8] = Selectivity ratio, ratio of IC50 for antiproliferative activity against human HT-29 cells to IC50 for antiproliferative activity against human MCF7 cells expressing CYP1A1; format: functional

| SMILES | IC50 (M21) | IC50 (MCF7) | IC50 (HT-29) | further results |
| --- | --- | --- | --- | --- |
| CCCCCN1CCN(c2ccc(S(=O)(=O)Oc3ccc(OC)cc3)cc2)C1=O | > 12500 nM | > 12500 nM | > 12500 nM | – |
| CCCCCCN1CCN(c2ccc(S(=O)(=O)Oc3cc(OC)cc(OC)c3)cc2)C1=O | > 1250 nM | > 1250 nM | > 1250 nM | – |
| CCCCN1CCN(c2ccc(S(=O)(=O)Oc3cccc(I)c3)cc2)C1=O | – | – | – | half-life [1]: 12.3 min; microsomal CLint [2]: 14 µL/min/mg; microsomal CLint [3]: 109 µL/min/mg; half-life [4]: 12.7 min; half-life [5]: 100 min; microsomal CLint [6]: 109 µL/min/mg |
| O=c1cc(-c2ccccc2)oc2c1ccc1ccccc12 [ALPHA-NAPHTHOFLAVONE] | – | – | – | Ki (Cytochrome P450 1A1): 50 nM |
| CCCCCN1CCN(c2ccc(S(=O)(=O)Oc3cccc(Br)c3)cc2)C1=O | > 12500 nM | 300 nM | > 12500 nM | Ratio IC50 [7]: >42; Ratio IC50 [8]: >42 |
| CCCCCCCCN1CCN(c2ccc(S(=O)(=O)Oc3ccc(OC)cc3)cc2)C1=O | > 1250 nM | > 1250 nM | > 1250 nM | – |
| CCCCCN1CCN(c2ccc(S(=O)(=O)Oc3ccccc3)cc2)C1=O | > 25000 nM | > 25000 nM | > 25000 nM | – |
| CCCCCN1CCN(c2ccc(S(=O)(=O)Oc3ccc(F)c(F)c3)cc2)C1=O | > 12500 nM | > 12500 nM | > 12500 nM | – |
| CCCCCCCCN1CCN(c2ccc(S(=O)(=O)Oc3cccc(F)c3)cc2)C1=O | > 1250 nM | > 1250 nM | > 1250 nM | – |
| CCCCCCN1CCN(c2ccc(S(=O)(=O)Oc3cccc(Cl)c3)cc2)C1=O | > 2500 nM | 1800 nM | > 2500 nM | Ratio IC50 [7]: >1.4; Ratio IC50 [8]: >1.4 |
| CCCCCCN1CCN(c2ccc(S(=O)(=O)Oc3cc(Br)cc(Br)c3)cc2)C1=O | 730 nM | 120 nM | > 1250 nM | Ratio IC50 [7]: 6.1; Ratio IC50 [8]: >10 |
| CCCCCCCCN1CCN(c2ccc(S(=O)(=O)Oc3cccc(I)c3)cc2)C1=O | > 1250 nM | > 1250 nM | > 1250 nM | – |
| CCCCCCCCN1CCN(c2ccc(S(=O)(=O)Oc3cc(Cl)cc(Cl)c3)cc2)C1=O | > 1250 nM | > 1250 nM | > 1250 nM | – |
| CCCCCCCCN1CCN(c2ccc(S(=O)(=O)Oc3ccc(F)c(F)c3)cc2)C1=O | > 1250 nM | > 1250 nM | > 1250 nM | – |
| CCCCCCCCN1CCN(c2ccc(S(=O)(=O)Oc3cc(OC)cc(OC)c3)cc2)C1=O | > 2500 nM | > 2500 nM | > 2500 nM | – |
| CCCCCCCCN1CCN(c2ccc(S(=O)(=O)Oc3cc(OC)c(OC)c(OC)c3)cc2)C1=O | > 1250 nM | > 1250 nM | > 1250 nM | – |
| CCCCCCN1CCN(c2ccc(S(=O)(=O)Oc3cccc(I)c3)cc2)C1=O | > 1250 nM | 1100 nM | > 1250 nM | Ratio IC50 [7]: >1.1; Ratio IC50 [8]: >1.1 |
| CCCCCCN1CCN(c2ccc(S(=O)(=O)Oc3cccc(Br)c3)cc2)C1=O | > 1250 nM | > 1250 nM | > 1250 nM | – |
| CCCCN1CCN(c2ccc(S(=O)(=O)Oc3cc(OC)cc(OC)c3)cc2)C1=O | – | – | – | half-life [1]: 10.5 min; microsomal CLint [2]: 20.7 µL/min/mg; microsomal CLint [3]: 15 µL/min/mg; half-life [4]: 93 min; half-life [5]: 67 min; microsomal CLint [6]: 133 µL/min/mg |
| CCCCCN1CCN(c2ccc(S(=O)(=O)Oc3ccccc3OC)cc2)C1=O | > 12500 nM | > 12500 nM | > 12500 nM | – |
| CCCCN1CCN(c2ccc(S(=O)(=O)Oc3cccc(Cl)c3)cc2)C1=O | – | – | – | half-life [1]: 13.3 min; microsomal CLint [2]: 11 µL/min/mg; microsomal CLint [3]: 65 µL/min/mg; half-life [4]: 22 min; half-life [5]: 126 min; microsomal CLint [6]: 104 µL/min/mg |
| CCCCCCN1CCN(c2ccc(S(=O)(=O)Oc3cc(Cl)cc(Cl)c3)cc2)C1=O | > 1250 nM | 250 nM | > 1250 nM | Ratio IC50 [7]: >5; Ratio IC50 [8]: >5 |
| CCCCCCN1CCN(c2ccc(S(=O)(=O)Oc3cccc(F)c3)cc2)C1=O | > 2500 nM | > 2500 nM | > 2500 nM | – |
